These results are taken from patent US20130095605A1, “LEAVING SUBSTITUENT-CONTAINING COMPOUND, ORGANIC SEMICONDUCTOR MATERIAL FORMED THEREFROM, ORGANIC ELECTRONIC DEVICE, ORGANIC THIN-FILM TRANSISTOR AND DISPLAY DEVICE USING THE ORGANIC SEMICONDUCTOR MATERIAL, METHOD FOR PRODUCING FILM-LIKE PRODUCT, PI-ELECTRON CONJUGATED COMPOUND AND METHOD FOR …” (RICOH COMPANY, LTD., priority 2010, published 2013).

Series [1] is described as follows: Evaluation of dissolvability (saturated solution in organic solvent). The series is classed as physicochemical. To be noted: reflux 10 min, cooled to room temperature, left 16 hours, filtrated. The method, then:
Each of the compounds obtained in Examples 1, 3, 5, 6, 7, 8, 9, 10, 11 and 12 and the corresponding specific compounds (24) to (33) was added to toluene, THF, anisole or chloroform (each: […]) until insoluble matter was found. The resultant mixture was stirred for 10 min under reflux of the solvent and cooled to room temperature, followed by stirring for 1 hour. After the mixture had been left to stand still for 16 hours, the supernatant was filtrated with a 0.2 μm PTFE filter to obtain a saturated solution. The obtained solution was dried under reduced pressure to calculate the dissolvability of the compound to each solvent.
The evaluation criteria in Table 1 are as follows.
A: 0.5% by mass≦Dissolvability B: 0.1% by mass≦Dissolvability<0.5% by mass C: 0.005% by mass≦Dissolvability<0.1% by mass D: Dissolvability<0.005% by mass

A short description of series [2]: Solubility of annealed thin film in solvents. The series is classed as physicochemical. To be noted: chloroform, THF, toluene, etc. at 25° C.; film after annealing 30 min at 150° C. As for the experimental part:
Each (5 mg) of Ex. 1 compound and Ex. 2 compound synthesized in Synthesis Examples 1 and 2 was dissolved in THF, so that the concentration of the compound became 0.1% by mass, and the mixture was filtrated using a 0.2 μm-filter to prepare a solution. Onto a N-type silicon substrate having a 300 nm-thick thermally-oxidized film, which had been soaked in concentrated sulfuric acid for 24 hours, 100 μL of the prepared solution was added dropwise with a pipette, and a […] liquid droplet of the prepared solution was jetted 50 times using an inkjet apparatus (head; product of Ricoh Printing Systems, Ltd.). The thus-treated substrate was covered with a petri dish and left to stand still until the solvent was evaporated to thereby form a thin film. […] Next, the thin film was subjected to annealing for 30 min at 150° C. in an argon atmosphere.
After annealing, a plurality of colored domains were observed under the polarization microscope, and it was confirmed that a smooth and crystalline film was obtained. These films were obtained because each of Ex. 1 compound and Ex. 2 compound serving as precursors lost an ester group (i.e., a soluble group) and converted to Compound 24 having stronger intermolecular interaction, and became crystalline in the film. The thin film was insoluble in chloroform, THF, toluene, etc. at 25° C.

As to `c1ccc2c(c1)ccc1cc3ccc4c5c(ccc6ccccc65)cc5ccc(c12)c3c54` [Compound (26)], in series [1], the “Dissolvability, solvent Anisole” value was “D (Dissolvability<0.005% by mass)”; the “Dissolvability, solvent THF” value is recorded as “D (Dissolvability<0.005% by mass)”; the “Dissolvability, solvent Toluene” value is “D (Dissolvability<0.005% by mass)”.

As to `CCCCCC(=O)OC1Cc2cc(C#Cc3ccccc3)ccc2-c2ccc(C#Cc3ccccc3)cc21` (stereo not shown) [Ex. 12 compound], in series [1], the “Dissolvability, solvent Anisole” value is given as “A (0.5% by mass≦Dissolvability)”; the “Dissolvability, solvent THF” value was “A (0.5% by mass≦Dissolvability)”; the “Dissolvability, solvent Toluene” value is on record as “A (0.5% by mass≦Dissolvability)”.

`C(#Cc1cc2sc3cc4c(cc3c2s1)sc1cc(C#Cc2ccc3ccccc3c2)sc14)c1ccc2ccccc2c1` [Compound (30)]: in series [1], the “Dissolvability, solvent Anisole” value is listed as “D (Dissolvability<0.005% by mass)”; the “Dissolvability, solvent THF” value is on record as “D (Dissolvability<0.005% by mass)”; the “Dissolvability, solvent Toluene” value was “D (Dissolvability<0.005% by mass)”.

Consider `CC(C)(C)C(=O)OC1Cc2cc3c(cc2-c2ccc4ccccc4c21)CC(OC(=O)C(C)(C)C)c1c-3ccc2ccccc12` (stereo not shown) [Ex. 8 compound], for which, in series [1], the “Dissolvability, solvent Anisole” value is reported as “A (0.5% by mass≦Dissolvability)”; the “Dissolvability, solvent THF” value is listed as “A (0.5% by mass≦Dissolvability)”; the “Dissolvability, solvent Toluene” value is “A (0.5% by mass≦Dissolvability)”.

On to `c1cc2ccc3cc4ccc5cc6c(ccc7cc8ccc9cccc%10ccc(c76)c8c9%10)cc5c4c4ccc(c1)c2c34` [Compound (28)], for which, in series [1], the “Dissolvability, solvent Anisole” value is on record as “D (Dissolvability<0.005% by mass)”; the “Dissolvability, solvent THF” value was “D (Dissolvability<0.005% by mass)”; the “Dissolvability, solvent Toluene” value is “D (Dissolvability<0.005% by mass)”.

In the case of `COC1CC=Cc2ccc(-c3cc4sc(-c5ccc6c(c5)C(OC)CC=C6)cc4s3)cc21` (stereo not shown) [Ex. 3 compound], in series [1], the “Dissolvability, solvent Anisole” value was “B (0.1% by mass≦Dissolvability<0.5% by mass)”; the “Dissolvability, solvent THF” value is given as “A (0.5% by mass≦Dissolvability)”; the “Dissolvability, solvent Toluene” value is “A (0.5% by mass≦Dissolvability)”.

`c1ccc2c(c1)ccc1c3cc4sc5c6ccccc6ccc5c4cc3sc21` [Compound (25)]: in series [1], the “Dissolvability, solvent Anisole” value is “D (Dissolvability<0.005% by mass)”; the “Dissolvability, solvent THF” value is “D (Dissolvability<0.005% by mass)”; the “Dissolvability, solvent Toluene” value is “D (Dissolvability<0.005% by mass)”.

Take `c1ccc2c(c1)ccc1c3cc4ccc5c6ccccc6ccc5c4cc3ccc21` [Compound (27)]: in series [1], the “Dissolvability, solvent Anisole” value is “D (Dissolvability<0.005% by mass)”; the “Dissolvability, solvent THF” value is “D (Dissolvability<0.005% by mass)”; the “Dissolvability, solvent Toluene” value was “D (Dissolvability<0.005% by mass)”.

On to `CCCCC(CC)C(=O)OC1Cc2ccccc2-c2c1cc1ccc3c4c(cc5ccc2c1c53)C(OC(=O)C(CC)CCCC)Cc1ccccc1-4` (stereo not shown) [Ex. 7 compound], for which, in series [1], the “Dissolvability, solvent Anisole” value is reported as “B (0.1% by mass≦Dissolvability<0.5% by mass)”; the “Dissolvability, solvent THF” value is on record as “A (0.5% by mass≦Dissolvability)”; the “Dissolvability, solvent Toluene” value is listed as “B (0.1% by mass≦Dissolvability<0.5% by mass)”.

As to `c1ccc2cc3c(ccc4c3ccc3c4ccc4c5ccc6cc7ccccc7cc6c5ccc43)cc2c1` [Compound (29)], in series [1], the “Dissolvability, solvent Anisole” value was “D (Dissolvability<0.005% by mass)”; the “Dissolvability, solvent THF” value is listed as “D (Dissolvability<0.005% by mass)”; the “Dissolvability, solvent Toluene” value is “D (Dissolvability<0.005% by mass)”.

Regarding `CCCCCC(=O)OC1CC=Cc2cc3c(ccc4c3ccc3c4ccc4c5ccc6cc7c(cc6c5ccc43)C=CCC7OC(=O)CCCCC)cc21` (stereo not shown) [Ex. 10 compound], in series [1], the “Dissolvability, solvent Anisole” value is recorded as “B (0.1% by mass≦Dissolvability<0.5% by mass)”; the “Dissolvability, solvent THF” value is listed as “A (0.5% by mass≦Dissolvability)”; the “Dissolvability, solvent Toluene” value is given as “B (0.1% by mass≦Dissolvability<0.5% by mass)”.

In the case of `c1ccc2cc(-c3cc4sc(-c5ccc6ccccc6c5)cc4s3)ccc2c1` [Compound (24)], in series [2], the “solubility of thin film” value is “insoluble”. In addition, in series [1], the “Dissolvability, solvent Anisole” value is “D (Dissolvability<0.005% by mass)”; the “Dissolvability, solvent THF” value is listed as “D (Dissolvability<0.005% by mass)”; the “Dissolvability, solvent Toluene” value is given as “D (Dissolvability<0.005% by mass)”.

As for `C(#Cc1ccc2c(ccc3cc(C#Cc4ccccc4)ccc32)c1)c1ccccc1` [Compound (31)], in series [1], the “Dissolvability, solvent Anisole” value is reported as “C (0.005% by mass≦Dissolvability<0.1% by mass)”; the “Dissolvability, solvent THF” value was “B (0.1% by mass≦Dissolvability<0.5% by mass)”; the “Dissolvability, solvent Toluene” value was “C (0.005% by mass≦Dissolvability<0.1% by mass)”.
